Results from paper PMC7383625, “Sequence‐Based Prediction of Promiscuous Acyltransferase Activity in Hydrolases” (Angewandte Chemie (International Ed. in English), 2020).

How the values were obtained:
Format in all cases: biochemical
Est8 [1] = molecular target: T1, Est8 (uncultured bacterium, UniProt Z9EH37ATT5); assay: GC of 2-phenylethyl acetate formation; conditions: acyl acceptor, 20 mM; vinyl acetate 200 mM as acyl donor; 200 mM buffer at pH optimum
T1 construct: bHSL esterase with N-terminal cap domain; crystal structure solved here
T1 sequence (Z9EH37ATT5 1-297): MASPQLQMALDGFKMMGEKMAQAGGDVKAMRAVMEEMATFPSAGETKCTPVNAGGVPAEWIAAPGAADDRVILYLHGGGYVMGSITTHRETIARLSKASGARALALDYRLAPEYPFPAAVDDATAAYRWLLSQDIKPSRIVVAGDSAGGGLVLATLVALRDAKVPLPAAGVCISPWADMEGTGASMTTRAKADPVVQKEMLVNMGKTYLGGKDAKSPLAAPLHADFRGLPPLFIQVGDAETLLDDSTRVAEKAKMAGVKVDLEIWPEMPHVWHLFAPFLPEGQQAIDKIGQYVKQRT

3FAK = molecular target: T2, 3FAK (uncultured bacterium, UniProt Q0GMU2); assay: colorimetric pNPA acyltransferase assay, pNP release at […] nm; conditions: acyl donor; benzyl alcohol or 2-phenylethanol as acyl acceptor
T2 construct: named only by PDB code; construct in supplement
T2 sequence (Q0GMU2 with tags, fused parts or gaps): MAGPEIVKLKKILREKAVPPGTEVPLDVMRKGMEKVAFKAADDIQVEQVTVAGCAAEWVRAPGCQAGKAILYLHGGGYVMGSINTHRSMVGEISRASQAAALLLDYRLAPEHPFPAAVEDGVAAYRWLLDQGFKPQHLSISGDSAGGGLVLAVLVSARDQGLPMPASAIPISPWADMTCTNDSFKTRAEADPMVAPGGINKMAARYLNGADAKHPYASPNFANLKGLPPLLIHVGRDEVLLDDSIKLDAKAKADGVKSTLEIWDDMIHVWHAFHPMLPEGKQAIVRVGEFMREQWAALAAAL

Est8 [2] = molecular target: T1, Est8; assay: as above; conditions: acyl donor; benzyl alcohol or 2-phenylethanol as acyl acceptor
4XVC = molecular target: T3, 4XVC (uncultured bacterium, UniProt Z9PJA9OM60); assay: as above; conditions: acyl donor; benzyl alcohol or 2-phenylethanol as acyl acceptor
T3 construct: named only by PDB code; construct in supplement
T3 sequence (Z9PJA9OM60 21-317): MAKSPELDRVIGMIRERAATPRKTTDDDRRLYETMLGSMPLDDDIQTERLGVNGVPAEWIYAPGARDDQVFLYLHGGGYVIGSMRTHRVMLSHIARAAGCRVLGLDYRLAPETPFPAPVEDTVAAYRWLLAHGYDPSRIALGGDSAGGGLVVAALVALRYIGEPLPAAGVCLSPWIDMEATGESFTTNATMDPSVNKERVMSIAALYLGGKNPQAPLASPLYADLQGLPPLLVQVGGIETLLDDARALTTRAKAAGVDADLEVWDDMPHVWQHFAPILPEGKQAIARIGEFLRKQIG

3K6K = molecular target: T4, 3K6K (uncultured bacterium, UniProt Z9ICY0V5A2); assay: as above; conditions: acyl donor; benzyl alcohol or 2-phenylethanol as acyl acceptor
T4 construct: named only by PDB code; construct in supplement
T4 sequence (Z9ICY0V5A2 15-328): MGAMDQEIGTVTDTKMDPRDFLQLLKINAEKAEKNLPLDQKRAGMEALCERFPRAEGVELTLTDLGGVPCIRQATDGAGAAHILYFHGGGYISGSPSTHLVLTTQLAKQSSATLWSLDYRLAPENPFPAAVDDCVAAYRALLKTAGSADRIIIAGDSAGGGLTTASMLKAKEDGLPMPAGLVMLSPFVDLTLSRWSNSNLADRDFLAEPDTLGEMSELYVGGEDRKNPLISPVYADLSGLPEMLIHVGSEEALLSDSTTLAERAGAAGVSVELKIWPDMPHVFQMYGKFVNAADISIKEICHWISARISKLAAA

3ZWQ = molecular target: T5, 3ZWQ (Pyrobaculum calidifontis, UniProt A3MVR4); assay: as above; conditions: acyl donor; benzyl alcohol or 2-phenylethanol as acyl acceptor
T5 construct: gene Pcal_1307; named only by PDB code; construct in supplement
T5 sequence (A3MVR4 1-313): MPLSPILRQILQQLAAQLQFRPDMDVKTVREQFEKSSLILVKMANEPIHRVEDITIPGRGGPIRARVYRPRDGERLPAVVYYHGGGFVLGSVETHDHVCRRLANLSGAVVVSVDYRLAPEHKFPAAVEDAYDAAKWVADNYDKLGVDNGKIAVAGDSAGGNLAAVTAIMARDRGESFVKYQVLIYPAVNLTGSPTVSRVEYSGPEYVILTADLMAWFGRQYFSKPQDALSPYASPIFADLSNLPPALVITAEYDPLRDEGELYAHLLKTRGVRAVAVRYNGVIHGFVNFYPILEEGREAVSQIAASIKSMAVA

SMILES: OCCc1ccccc1 [2-phenylethanol]
- GC of 2-phenylethyl acetate formation (Est8 [1]): For Est8, product hydrolysis became more dominant than acyl transfer quickly

SMILES: CC(=O)Oc1ccc([N+](=O)[O-])cc1 [pNPA]
- colorimetric pNPA acyltransferase assay, pNP release at 405 nm (3FAK): reactions were carried out for Est8 and its homologues using both benzyl alcohol
- colorimetric pNPA acyltransferase assay, pNP release at 405 nm (Est8 [2]): reactions were carried out for Est8 and its homologues using both benzyl alcohol
- colorimetric pNPA acyltransferase assay, pNP release at 405 nm (4XVC): reactions were carried out for Est8 and its homologues using both benzyl alcohol
- colorimetric pNPA acyltransferase assay, pNP release at 405 nm (3K6K): reactions were carried out for Est8 and its homologues using both benzyl alcohol
- colorimetric pNPA acyltransferase assay, pNP release at 405 nm (3ZWQ): 3ZWQ showed three‐fold higher acyltransferase activity with benzyl alcohol, outperforming 1EVQ
